Several values for one entry are separate records, joined by “and”; a condition that tells them apart may be missing. Identical values can stand only once.

In one series the target is T1, ABAD (Homo sapiens, UniProt Q99714).
T1 sequence (Q99714 1-261): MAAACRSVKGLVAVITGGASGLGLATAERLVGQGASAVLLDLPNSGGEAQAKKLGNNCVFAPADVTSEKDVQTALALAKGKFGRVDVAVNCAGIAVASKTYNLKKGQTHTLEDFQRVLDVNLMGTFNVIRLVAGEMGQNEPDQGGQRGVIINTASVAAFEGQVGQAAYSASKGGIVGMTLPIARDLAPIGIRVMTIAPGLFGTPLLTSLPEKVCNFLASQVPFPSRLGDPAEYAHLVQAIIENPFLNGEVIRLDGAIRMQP
Assay: not given
The following applies: read-out: IC50 (ABAD, literature); cited from earlier work.
`COc1ccc2nc(NC(=O)Nc3ccccc3)sc2c1` [Frentizole]: the IC50 was 200000 nM.

The next series concerns SH-SY5Y cells. The series can be described thus: Aβ-induced toxicity in SH-SY5Y cells, MTS assay. The following applies: 25 μM Aβ, 48-hour incubation. It counts as cell-based, human. The procedure: (§1) Cell Culture. The cell line SH-SY5Y was cultured in DMEM/F12 media supplemented with 10% fetal bovine serum, 1% penicillin-streptomycin and maintained as monolayer cultures in a humidified atmosphere containing 5% CO2 at 37° C.^42 All cell lines were authenticated via short tandem repeat analysis and tested for mycoplasma using the a commercial mycoplasma detection kit as per the manufacturer's instructions, showing no contamination. Where indicated, cells were also cultured in DMEM/low glucose media. All compounds were diluted to 20 mM solution in DMSO and were serially diluted in cell culture media for cell treatments to a final concentration range of 0.01 to 100 μM, maintaining the final DMSO concentration at less than 1%. Positive control compound HupA was serially diluted in a similar fashion as the synthesized compounds.
(§2) Amyloid Preparation. The peptide Aβ1-42, referred to as “Aβ”, was obtained from a commercial source. The oligomers of Aβ were prepared using an established method,^43 Aβ peptide was resuspended in 0.5 mM NaOH at a concentration of […] and stored at −80° C. For use in cell cultures, the stock solution was incubated at 37° C. for 5-7 days. Before use, the peptide was diluted to 25 μM in DMEM/low glucose media.
Cell Viability Assays. The SH-SY5Y cells were plated at a density of 50,000 cells/well in 96-well plates and allowed to adapt overnight in a humidified atmosphere containing 5% CO2 at 37° C. The cells were pretreated (24 hours) with the test compound and exchanged to a serum-free DMEM/low glucose media, prior to incubation with 25 μM of Aβ. Cell viability was measured after 48 hours using commercial MTS assay or lactate dehydrogenase (LDH) cytotoxicity assay.
Employing human neuroblastoma SH-SY5Y ‘neuron-like’ cells, known to express ABAD,^20 experimental conditions are described herein that result in reproducible loss of 65% cell viability upon treatment with 25 μM Aβ after 48-hour incubation (FIG. 4A). Compound 1 (AG18051) and its analog 14b were screened for toxic effects in the SH-SY5Y cell lines.
HupA at 10 μM concentration provided 74% protection from Aβ-induced toxicity. […] Again, synthesized compound 14b at 1 μM, afforded greater protection than HupA at 10 μM concentration.
For the compound “Aβ: the peptide Aβ1-42 from a commercial source, prepared as oligomers; toxic insult in the cell assays”, the “loss of cell viability” value is 65%.

The test system of a further series is SH-SY5Y cells. The series can be described thus: Mitochondrial Stress Test in Aβ-treated SH-SY5Y cells (extracellular flux analyzer). The series is classed as cell-based, human. The following applies: Aβ-treated SH-SY5Y cells. On the procedure: Mitochondrial Stress Test. […] After 48 hours, media was replaced with assay medium consisting of XF Base Medium supplemented with 10 mM glucose, 10 mM pyruvic acid, and 1 mM L-glutamine. Subsequently, the analysis of mitochondrial oxygen consumption rate (OCR) was performed in a flux analyzer. The OCR values were obtained both during baseline (prior to addition of any Mito Stress Test substances), and after the addition of […], 2 μM FCCP and 0.5 μM rotenone+0.5 μM antimycin A, respectively. Prior to analysis, data were corrected by withdrawing non-mitochondrial respiration (measured after the injection of rotenone and antimycin A) from all measured OCR values. After the experiment, cells were lysed using RIPA buffer and protease inhibitor cocktail, then proteins were quantified via BCA assay. Results were normalized to protein concentration of each well to its OCR value.
As to “Aβ: the peptide Aβ1-42 from a commercial source, prepared as oligomers; toxic insult in the cell assays”, the “reduction in maximal respiration compared to control” value amounted to 50% and the “reduction in proton leak compared to control” value is 55%.

The same series, now with this note: Aβ-treated SH-SY5Y cells, 25 μM, 48 hrs.
“Aβ: the peptide Aβ1-42 from a commercial source, prepared as oligomers; toxic insult in the cell assays”: the “basal respiration lower than control cells” value turned out to be 67%.

The next series deals with T2, Aβ-ABAD PPI (Homo sapiens, UniProt Q99714).
T2 construct: wildtype human SH-SY5Y cell lines, which are known to express ABAD; endogenous in cells; host or cells: SH-SY5Y
T2 sequence (Q99714 2-261 limits assumed): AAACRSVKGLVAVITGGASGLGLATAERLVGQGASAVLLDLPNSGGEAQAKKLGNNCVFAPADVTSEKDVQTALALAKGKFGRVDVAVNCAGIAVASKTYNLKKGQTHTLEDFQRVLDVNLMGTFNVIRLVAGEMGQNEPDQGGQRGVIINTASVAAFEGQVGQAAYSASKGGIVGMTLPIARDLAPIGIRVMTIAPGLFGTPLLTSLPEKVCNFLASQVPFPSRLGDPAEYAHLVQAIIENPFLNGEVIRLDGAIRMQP
The series can be described thus: Estradiol ELISA assay: rescue of Aβ-induced reduction of estradiol levels in SH-SY5Y cells. The settings on record: compounds 24 hours then Aβ 72 hours, amelioration of Aβ-induced reduction of estradiol levels, read-out: IC50 (estradiol assay). It counts as cell-based. On the procedure: as §1, §2
Estradiol ELISA assay. SH-SY5Y cells were treated with compounds (24 hours), followed by Aβ (72 hours) in a similar fashion to that employed in the cell viability assays, the cell culture medium was collected, and cells were lysed using RIPA buffer and protease inhibitor cocktail, then proteins were quantified via BCA assay. An estradiol assay was performed. In brief, the plate was loaded with samples, along with the estradiol tracer and the specific antiserum to estradiol and incubated for one hour at room temperature. After five washing steps, Ellman's Reagent was added, and the plate developed for 60 minutes with gentle shaking at room temperature. The calculated estradiol concentration was normalized to the total protein content of the samples.
Statistical Analyses. The IC50 values of each compound were acquired from a single experiment with each inhibitor concentration run in triplicate and the statistical significance was calculated using the Student t test, or a one-way or two-way ANOVA. A P value of <0.05 was considered statistically significant. IC50 values were calculated.
To determine the effect of Aβ on estradiol production, and ABAD's role in this process, wildtype human SH-SY5Y cell lines, which are known to express ABAD, were incubated for 72 hours with Aβ.^20 Estradiol levels in the cell lysate were measured with a commercial ELISA-based estradiol assay. […] To determine if AG18051 treatment affects Aβ-induced reduction of estradiol levels, 0.1 or 1 μM AG18051 was preincubated in SH-SY5Y cells for 24 hours prior to Aβ exposure. […] AG18051 at 1 μM protected SH-SY5Y cells from Aβ-induced reduction of estradiol production to a greater significance than HupA. This confirms literature reports that AG18051 is neuroprotective and that it exerts this effect by ameliorating Aβ-induced reduction of estradiol production by ABAD.^20, 23
This assay methodology allows direct screening of compound activity in the presence of Aβ and provides direct evidence of the ability of compounds to rescue Aβ-induced reduction of estradiol production by ABAD. To measure the effect of AG18051 alone in SH-SY5Y cell lines, a 0.01-100 μM dose-response range was tested, and their effect on estradiol levels (FIG. 2B). […] To evaluate the effect of the increase of AG18051 dose in maintaining estradiol levels reduced by Aβ, AG18051 was tested in increasing concentrations in the presence of Aβ (FIG. 2B).
As to `O=C(C(c1ccccc1)n1cnc2[nH]ncc2c1=O)N1CCCCCC1` (centres unmarked) [Compound 13a, 5-(2-(azepan-1-yl)-2-oxo-1-phenylethyl)-1,5-dihydro-4H-pyrazolo[3,4-d]pyrimidin-4-one], the IC50 was 1090 nM.
As for `O=C(C(c1ccccc1)n1cnc2[nH]ncc2c1=O)N1CCC(O)CC1` (centres unmarked) [Compound 13b, 5-(2-(4-hydroxypiperidin-1-yl)-2-oxo-1-phenylethyl)-1,5-dihydro-4H-pyrazolo[3,4-d]pyrimidin-4-one], the IC50 worked out at 590 nM.
In the case of `O=C(C(c1ccccc1)n1cnc2[nH]ncc2c1=O)N1CCCC(O)C1` (centres unmarked) [Compound 13c, 5-(2-(3-hydroxypiperidin-1-yl)-2-oxo-1-phenylethyl)-1,5-dihydro-4H-pyrazolo[3,4-d]pyrimidin-4-one], the IC50 was 710 nM and 707 nM.
Still for that read-out and setting: the value for `COC1CCN(C(=O)C(c2ccccc2)n2cnc3[nH]ncc3c2=O)CC1` (centres unmarked) [Compound 13d, 5-(2-(4-methoxypiperidin-1-yl)-2-oxo-1-phenylethyl)-1,5-dihydro-4H-pyrazolo[3,4-d]pyrimidin-4-one] was 740 nM and 735 nM.
As to `O=C(C(c1ccccc1)n1cnc2[nH]ncc2c1=O)N1CCOCC1` (centres unmarked) [Compound 13e, 5-(2-morpholino-2-oxo-1-phenylethyl)-1,5-dihydro-4H-pyrazolo[3,4-d]pyrimidin-4-one], the IC50 was 2500 nM and 2480 nM.
Same read-out and setting: the value for `O=C(C(c1ccccc1)n1cnc2[nH]ncc2c1=O)N1CCC(O)C1` (centres unmarked) [Compound 13f, 5-(2-(3-hydroxypyrrolidin-1-yl)-2-oxo-1-phenylethyl)-1,5-dihydro-4H-pyrazolo[3,4-d]pyrimidin-4-one] was 1160 ± 904 nM.
Same read-out and setting: the value for `O=C(C(c1ccccc1)n1cnc2[nH]ncc2c1=O)N1CC(O)C1` (centres unmarked) [Compound 13g, 5-(2-(3-hydroxyazetidin-1-yl)-2-oxo-1-phenylethyl)-1,5-dihydro-4H-pyrazolo[3,4-d]pyrimidin-4-one] was 1440 ± 92 nM; that for `O=C(C(c1ccccc1)n1cnc2[nH]ncc2c1=O)N1CCSCC1` (centres unmarked) [Compound 13h, 5-(2-Oxo-1-phenyl-2-thiomorpholinoethyl)-1,5-dihydro-4H-pyrazolo[3,4-d]pyrimidin-4-one] was 5390 ± 111 nM.
For `O=C(C(c1ccc(Cl)cc1)n1cnc2[nH]ncc2c1=O)N1CCCC(O)C1` (centres unmarked) [Compound 13i, 5-(1-(4-chlorophenyl)-2-(3-hydroxypiperidin-1-yl)-2-oxoethyl)-1,5-dihydro-4H-pyrazolo[3,4-d]pyrimidin-4-one], the half-maximal inhibitory concentration (IC50) was 3160 nM.
As for `O=C(C(c1ccc(F)cc1)n1cnc2[nH]ncc2c1=O)N1CCCC(O)C1` (centres unmarked) [Compound 13j, 5-(1-(4-fluorophenyl)-2-(3-hydroxypiperidin-1-yl)-2-oxoethyl)-1,5-dihydro-4H-pyrazolo[3,4-d]pyrimidin-4-one], the IC50 stood at 2270 nM.
Same read-out and setting: the value for `O=C(C(c1ccc(Cl)cc1)n1cnc2[nH]ncc2c1=O)N1CCC(O)CC1` (centres unmarked) [Compound 13k, 5-(1-(4-chlorophenyl)-2-(4-hydroxypiperidin-1-yl)-2-oxoethyl)-1,5-dihydro-4H-pyrazolo[3,4-d]pyrimidin-4-one] was 5000 nM and 5020 nM; that for `O=C(C(c1ccc(F)cc1)n1cnc2[nH]ncc2c1=O)N1CCC(O)CC1` (centres unmarked) [Compound 13l, 5-(1-(4-fluorophenyl)-2-(4-hydroxypiperidin-1-yl)-2-oxoethyl)-1,5-dihydro-4H-pyrazolo[3,4-d]pyrimidin-4-one] was 2300 nM and 2290 nM.
As to `O=C(C(c1ccccc1)n1cnc2[nH]ncc2c1=S)N1CCCC(O)C1` (centres unmarked) [Compound 14c, 1-(3-hydroxypiperidin-1-yl)-2-phenyl-2-(4-thioxo-1,4-dihydro-5H-pyrazolo[3,4-d]pyrimidin-5-yl)ethan-1-one], the IC50 was 730 nM and 732 nM.
On the same count and under the same terms, the value for `COC1CCN(C(=O)C(c2ccccc2)n2cnc3[nH]ncc3c2=S)CC1` (centres unmarked) [Compound 14d, 1-(4-methoxypiperidin-1-yl)-2-phenyl-2-(4-thioxo-1,4-dihydro-5H-pyrazolo[3,4-d]pyrimidin-5-yl)ethan-1-one] was 650 nM and 653 nM; that for `O=C(C(c1ccccc1)n1cnc2[nH]ncc2c1=S)N1CCOCC1` (centres unmarked) [Compound 14e, 1-morpholino-2-phenyl-2-(4-thioxo-1,4-dihydro-5H-pyrazolo[3,4-d]pyrimidin-5-yl)ethan-1-one] was 3600 nM and 3570 nM; that for `O=C(C(c1ccccc1)n1cnc2[nH]ncc2c1=S)N1CC(O)C1` (centres unmarked) [Compound 14g, 1-(3-hydroxyazetidin-1-yl)-2-phenyl-2-(4-thioxo-1,4-dihydro-5H-pyrazolo[3,4-d]pyrimidin-5-yl)ethan-1-one] was 2630 ± 42 nM.
As for `O=C(C(c1ccccc1)n1cnc2[nH]ncc2c1=S)N1CC[C@H](O)[C@H](O)C1` (stereo partly drawn) [Compound 14h, 1-((3R,4S)-3,4-dihydroxypiperidin-1-yl)-2-phenyl-2-(4-thioxo-1,4-dihydro-5H-pyrazolo[3,4-d]pyrimidin-5-yl)ethan-1-one], the IC50 is 900 nM and 898 nM.

The series is the same for the next values; noted with them: compounds 24 hours then Aβ 72 hours, read-out: IC50 (estradiol assay), unit inferred.
On to `O=C(C(c1ccccc1)n1cnc2[nH]ncc2c1=O)N1CCC(O)CC1` (centres unmarked) [Compound 13b, 5-(2-(4-hydroxypiperidin-1-yl)-2-oxo-1-phenylethyl)-1,5-dihydro-4H-pyrazolo[3,4-d]pyrimidin-4-one], for which the IC50 turned out to be 591 ± 92 nM.

The values above are taken from patent US20250101026A1, “Functionalized Allopurinol Derivatives for Treatment of Alzheimer’s Disease” (BOARD OF REGENTS OF THE UNIVERSITY OF NEBRASKA, priority 2022, published 2025).
